Reference: the supplement of paper PMC10933113
± gives the uncertainty stated by the source.

Columns and labels:
[1] = test system: KeratinoSens (HaCaT ARE-luciferase) cells; assay: AC50 of Nrf2/ARE luciferase induction; higher = less potent; settings: exposure time: 24 h
[2] = test system: KeratinoSens (HaCaT ARE-luciferase) cells; assay: cytotoxicity AC50 (CellTiter-Fluor viability); higher = less cytotoxic; settings: exposure time: 24 h
THP-1 = assay: efficacy of IL-8 induction relative to DMSO (% activity); higher = stronger induction; settings: exposure time: 18 h
[3] = test system: lysine peptide Ac-RFAAKAA-COOH; assay: efficacy of lysine peptide change (negative = depletion) (% activity); higher = less depletion; settings: incubation time: 24 h
[4] = test system: cysteine peptide Ac-RFAACAA-COOH; assay: efficacy of cysteine peptide change (negative = depletion) (% activity); higher = less depletion; settings: incubation time: 24 h
[5] = test system: KeratinoSens (HaCaT ARE-luciferase) cells; assay: efficacy of ARE luciferase induction relative to DMSO (% activity over DMSO); higher = stronger induction; settings: exposure time: 24 h
[6] = test system: cysteine peptide Ac-RFAACAA-COOH; assay: AC50 of cysteine peptide concentration-response (direction given by sign of efficacy); higher = less potent; settings: incubation time: 24 h

efficacy of lysine peptide change [3]	efficacy of cysteine peptide change [4]	SMILES	AC50 of Nrf2/ARE luciferase induction [1]	cytotoxicity AC50 [2]	efficacy of IL-8 induction (THP-1)	efficacy of ARE luciferase induction [5]	AC50 [6]
-0.11 ± 7.8	-84.1 ± 12	COc1ccc(-c2cc(=S)ss2)cc1 [Anethole trithione]	22 µM	34.2 ± 2.2 µM	38.6 ± 10	96.9 ± 78	
		CCN(CC)CCNc1ccc(CNC=O)c2sc3ccc(OC)cc3c(=O)c12	63.9 µM	59.5 ± 26 µM	3.79 ± 6.6	189 ± 110	
		C[C@]12C=CC3=C4CCC(=O)C=C4CC[C@H]3[C@@H]1CC[C@@H]2O [17beta-Trenbolone]	39.1 µM	50.9 ± 20 µM	32.2 ± 36	189 ± 53	
33.7 ± 4.6	-52.5 ± 14	O=C(Nc1cccc(Cl)c1)OCC#CCCl [Barban]	35.5 µM	55.2 ± 14 µM	34.1 ± 7.5	101 ± 30	
-31.1 ± 6.5	-94.7 ± 4	Oc1ccc2ccccc2c1N=Nc1ccccc1 [C.I. Solvent Yellow 14]	28.2 µM		5.32 ± 9.2	49.8 ± 19	10.8 ± 3.5 µM
-3.82 ± 16	3.66 ± 6.3	Cc1ccc(O)c(-n2nc3ccccc3n2)c1 [2-(2H-Benzotriazol-2-yl)-4-methylphenol]	22.4 µM		0	95.5 ± 93	
49.7 ± 18	-6.04 ± 5.4	O=C(NS(=O)(=O)/C=C/c1cccs1)c1ccc(F)cc1Br	14.1 µM		4.43 ± 7.7	56.2 ± 110	
39.7 ± 4.7	-16.7 ± 14	O=C1Nc2ccccc2C1(c1ccc(O)cc1)c1ccc(O)cc1 [Oxyphenisatin]	19 µM		0	47.8 ± 12	
85.3 ± 9.9	-29.7 ± 11	O=C1OC(OC(=O)c2cccnc2Nc2cccc(C(F)(F)F)c2)c2ccccc21 (centres undefined) [Talniflumate]	35.5 µM		9.09 ± 8.3	1280 ± 66	
		C=CC(=O)OCCCCOC(=O)C=C [1,4-Butanediol diacrylate]	35.5 µM	43 ± 2.8 µM	16.2 ± 1.7	336 ± 19	
58.4 ± 17	-15.7 ± 6.5	O=C(Nc1ccccc1)c1cc([N+](=O)[O-])ccc1Cl [2-Chloro-5-nitro-N-phenylbenzamide]	40 µM		10.4 ± 3	92.4 ± 39	
10.5 ± 18	3.16 ± 5.5	Clc1ccccc1-c1nc(-c2ccncc2)no1 [Pifexole]	11.4 µM		4.35 ± 7.5	60.8 ± 7.6	
7.79 ± 12	-90.9 ± 5	Nc1ccccc1N [1,2-Phenylenediamine*]	34.4 µM		4.93 ± 5.2	88 ± 31	1.06 ± 0.49 µM
58.5 ± 9.6	9.57 ± 11	Cc1c(C)n(CCN(C)C)c2ccc(C(=O)OCCN(C)C)cc12 [Amindocate]	29.8 µM	28.3 ± 9.3 µM	-1.77 ± 3.1	96.2 ± 38	
-12.4 ± 20	54.9	CC(C)=CCOc1ccc(/C=C/C(=O)c2ccc(OCC=C(C)C)cc2OCC(=O)O)cc1 [Sofalcone]	33 µM		0	521 ± 240	
-20.5 ± 4.3	-99.4 ± 8.8	C=C1CC[C@H](O)C/C1=C/C=C1\CCC[C@]2(C)[C@@H]([C@H](C)/C=C/[C@H](C)C(C)C)CC[C@@H]12 [Ergocalciferol*]	34.2 µM		20.2 ± 3.7	78.7 ± 43	28.3 ± 9.3 µM
-2.87 ± 17	-3.44 ± 6	COc1ccc2cc(CCC(C)=O)ccc2c1 [Nabumetone]	3.98 µM	7.94 µM	0.27 ± 5.5	124 ± 44	
-11.9 ± 11	-4.29 ± 3.9	Nc1nnc(-c2ccc([N+](=O)[O-])o2)o1 [2-Amino-5-(5-nitro-2-furyl)-1,3,4-oxadiazole]	26.2 µM		4.08 ± 7.1	45.2 ± 31	
-2 ± 3.5	-4.99 ± 8.6	O=C(Oc1ccccc1)c1cccc(C(=O)Oc2ccccc2)c1 [Diphenyl isophthalate]	29.8 µM		0	56.2 ± 20	
6.09 ± 18	-91.9 ± 9.5	O=C(O)Cc1cc(I)c(Oc2cc(I)c(O)c(I)c2)c(I)c1 [Tetrac]	43.1 µM		0	377 ± 69	33.5 ± 7.5 µM
-25.8 ± 6.1	-26.9 ± 24	O=CC(=O)c1ccccc1 [Phenyl glyoxal]	35.5 µM		0	522 ± 80	
-12.9 ± 12	1.07 ± 9.6	O=C(O)Cn1c(C(=O)Nc2nc(-c3ccccc3Cl)cs2)cc2ccccc21 [Lintitript]	32.9 µM		8.96 ± 8.3	155 ± 87	
11.4 ± 10	2.81 ± 4.9	C/C=C1\C(=O)C[C@H]2[C@@H]3CCC4=CC(=O)CC[C@]4(C)[C@H]3CC[C@]12C [Guggulsterone Z]	53.6 µM		7.24 ± 12	135 ± 63	
-2.72 ± 25	17.7 ± 15	COc1cc(C(C)C)c2c(c1)S(=O)(=O)N(COc1cc(=O)n3cccc(OCCN4CCCCC4)c3n1)C2=O	12.6 µM		54.6 ± 30	509 ± 320	
0.29 ± 19	-26 ± 7.3	Cc1ccc2c(c1[N+](=O)[O-])C(=O)c1ccccc1C2=O [2-Methyl-1-nitroanthraquinone]	34.8 µM		12 ± 10	81.9 ± 8.7	
11.4 ± 21	0	O=C(CCCCCCC(=O)Nc1ccccc1)NO [Vorinostat (SAHA)]	11.7 µM	11.4 ± 2.1 µM	7.76 ± 8.9	597 ± 130	
81.7 ± 28	-43 ± 15	CCN(CC)CCOc1ccc2c(c1)C(=O)c1cc(OCCN(CC)CC)ccc1-2 [Tilorone]	22.1 µM	12.6 ± 1.4 µM	27.2 ± 3.2	293 ± 85	

SMILES	efficacy of lysine peptide change [3]	efficacy of cysteine peptide change [4]	AC50 of Nrf2/ARE luciferase induction [1]	cytotoxicity AC50 [2]	efficacy of IL-8 induction (THP-1)	efficacy of ARE luciferase induction [5]	AC50 [6]
COP(=O)(OC)O/C(=C\Cl)c1cc(Cl)c(Cl)cc1Cl [Z-Tetrachlorvinphos]	75.2 ± 24	4.88 ± 8.5	41.8 µM	53.6 ± 16 µM	1.71 ± 3	72.1 ± 13	
CN1C[C@H](C(=O)N[C@]2(C)O[C@@]3(O)[C@@H]4CCCN4C(=O)[C@H](Cc4ccccc4)N3C2=O)C=C2c3cccc4[nH]cc(c34)C[C@H]21 [Ergotamine D-tartrate*]	14.3 ± 3.5	-98.5 ± 6.4	23.1 µM		15.3 ± 4.1	61.1 ± 17	11.4 ± 2.6 µM
O=C(CCl)CCl [1,3-Dichloropropanone]	-12.5 ± 16	-107 ± 9.9	40.9 µM		22.5 ± 6.2	84.2 ± 64	35.6 ± 4.1 µM
Cl/C=C\C[N+]12CN3CN(CN(C3)C1)C2 [Chloroallyl methenamine chloride]	-14.5 ± 14	-102 ± 6.1	73.7 µM		6.91 ± 6.8	1290 ± 60	19.6 ± 4.8 µM
CCOCN(C(=O)CCl)c1c(C)cccc1CC [Acetochlor]	79.9 ± 12	11.4 ± 11	53.6 µM	55.2 ± 14 µM	8.32 ± 8.4	98.8 ± 68	
COc1ccc(C(c2ccc(OC)cc2)C(Cl)(Cl)Cl)cc1 [Methoxychlor]	-3.51 ± 15	2.72 ± 4.7	43.2 µM		21.1 ± 3.3	50.9 ± 18	
CN(C)c1ccc(N)cc1 [N,N-Dimethyl-p-phenylenediamine]	-17.1 ± 8.3	-130 ± 19	17.1 µM		21 ± 7.2	84.5 ± 29	8.18 ± 2.3 µM
CC(COc1ccc(Oc2ccccc2)cc1)Oc1ccccn1 (centres undefined) [Pyriproxyfen]	-7.08 ± 11	8.09 ± 7	34.9 µM		4.2 ± 1.8	83.9 ± 13	
Cc1cc(C2CC2)nc(Nc2ccccc2)n1 [Cyprodinil]	57 ± 8.8	6 ± 10	35.1 µM		2.31 ± 4	41.8 ± 10	
Nc1ccc(Cl)cc1N [4-Chloro-1,2-diaminobenzene*]	-6.76 ± 18	-99.1 ± 6	13.7 µM		10.3 ± 2.3	70 ± 21	5.4 ± 2.3 µM
C[C@]12CC[C@H](O)C[C@H]1CC[C@@H]1[C@@H]2C[C@@H](O)[C@]2(C)[C@@H](C3=CC(=O)OC3)CC[C@]12O [Digoxigenin]	68.2 ± 22	2.17 ± 3.8	5.7 µM	4.65 ± 1.6 µM	21.1 ± 4.1	600 ± 260	
OC[P+](CO)(CO)CO [Tetrakis(hydroxymethyl)phosphonium SO4]	-40.3 ± 14	43.1 ± 6.6	29.4 µM		4.18 ± 7.2	126 ± 16	
CC#Cc1cc(C)nc(Nc2ccccc2)n1 [Mepanipyrim]	48.4 ± 24	-2.96 ± 5.1	47.4 µM		4.67 ± 8.1	73.3 ± 15	
NNC(N)=S [Thiosemicarbazide]	9.67 ± 17	-40.9 ± 11	15.8 µM	28.3 ± 3.2 µM	35.8 ± 29	64.8 ± 15	
[Cl][Cd][Cl] [Cadmium II chloride]	4.14 ± 11	11.2 ± 30	18.9 µM	37.3 ± 6.7 µM	19.4 ± 2.2	146 ± 94	
C=C1C[C@@H]2[C@H](CC[C@]3(C)C(=O)CC[C@@H]23)[C@@]2(C)C=CC(=O)C=C12 [Exemestane]	97.5 ± 6.3	-9.57 ± 9.8	33 µM		3.01 ± 5.2	109 ± 64	
O=[N+]([O-])c1c(Cl)c(Cl)c(Cl)c(Cl)c1Cl [Pentachloronitrobenzene]	5.1 ± 8.8	-3.67 ± 6.3	42.1 µM		12.2 ± 11	47.4 ± 32	
C[C@@H]1O[C@@H](O[C@@H]2C=C3CC[C@@H]4[C@H](CC[C@]5(C)[C@@H](c6ccc(=O)oc6)CC[C@]45O)[C@@]3(C)CC2)[C@H](O)[C@H](O)[C@H]1O [Proscillaridin]	14.3 ± 11	2.01 ± 3.5	0.27 µM	0.51 ± 0.11 µM	38.2 ± 14	246 ± 170	
CCCCOCN(C(=O)CCl)c1c(CC)cccc1CC [Butachlor]	2.3 ± 11	-24.1 ± 21	70.8 µM	41.4 ± 2.8 µM	22.1 ± 11	324 ± 31	
